Earlier results as cited in US6623768B1, “Pharmaceutically active composition extracted from Ferula hermonis and process of its extraction” (priority 2002, dated 2003).

Tested on: adult female rats

COc1cc(C(=O)O[C@H]2CC(C)=CC[C@@]3(C)CC[C@@](O)(C(C)C)[C@H]23)ccc1O [jaeschkeanadiol vanillate]
prevention of pregnancy (administered orally on 1 to 7 post coitum, adult female rats): prevent pregnancy | prevention of pregnancy after single dose (single oral administration of 5 mg per kg on the first day of post coitum, rats): prevented pregnancy
